These results are taken from patent US12612424B2, “HPK1 inhibitors and uses thereof” (Regor Pharmaceuticals, Inc., priority 2019, dated 2026).

A word on the IC50: it is the concentration needed to halve the response being measured.

Read-outs that look alike come from different tables or passages of the source. Where only a bound is given, the exact number is not on record here.

The target of assay [1] is T1, JAK3 (Homo sapiens, UniProt P52333).
T1 construct: purchased Thermo fisher PV3855
Put plainly: JAK3 biochemical assay (ADP-GLO Kinase Assay). The note with it: for JAKs/HPK1 IC50 Ratio, B* / JAKs/HPK1 IC50 Ratio, N*: ratio of JAK3 IC50 to HPK1 IC50; for JAKs/HPK1 IC50 Ratio, B*: first testing facility; for JAKs/HPK1 IC50 Ratio, N*: second testing facility. An outline of the steps: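 Luminescent ADP-Glo readout after a 60 min, 25 °C reaction of JAK3 (0.78 ng) on Poly(E4Y1) (0.2 μg/μL) at 4 μM ATP, Tris pH 7.5 buffer with MgCl2, BSA and DTT. Compounds tested 10 μM down to 0.508 nM in 3-fold steps; % inhibition normalised to DMSO and reference-compound controls, IC50 from three-parameter fit.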

The target in assay [2] is HPK1 (Homo sapiens, UniProt Q92918). Put plainly: HPK1 biochemical assay (ADP-GLO Kinase Assay). An outline of the steps:
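HPK1 (0.6 ng/μL final) activity was followed with MBP substrate and 10 μM ATP in Tris pH 7.5/MgCl2/BSA/DTT buffer, measured by ADP-Glo luminescence. Compounds were tested as 3-fold dilutions from 10 μM. IC50 came from a three-parameter logistic fit, with inhibition normalised to high/low controls.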

[3] abbreviates: B*: testing performed in a first testing facility, read-out: JAK3 IC50 (nM) Relative, B*.
[4] abbreviates: B*: testing performed in a first testing facility, read-out: HPK1 IC50 (nM) Relative, B*.
[5] abbreviates: N*: testing performed in a second testing facility, read-out: JAK3 IC50 (nM) Relative, N*.
Setting [6] is: N*: testing performed in a second testing facility, read-out: HPK1 IC50 (nM) Relative, N*.

Sequence of HPK1 (Q92918 whole entry): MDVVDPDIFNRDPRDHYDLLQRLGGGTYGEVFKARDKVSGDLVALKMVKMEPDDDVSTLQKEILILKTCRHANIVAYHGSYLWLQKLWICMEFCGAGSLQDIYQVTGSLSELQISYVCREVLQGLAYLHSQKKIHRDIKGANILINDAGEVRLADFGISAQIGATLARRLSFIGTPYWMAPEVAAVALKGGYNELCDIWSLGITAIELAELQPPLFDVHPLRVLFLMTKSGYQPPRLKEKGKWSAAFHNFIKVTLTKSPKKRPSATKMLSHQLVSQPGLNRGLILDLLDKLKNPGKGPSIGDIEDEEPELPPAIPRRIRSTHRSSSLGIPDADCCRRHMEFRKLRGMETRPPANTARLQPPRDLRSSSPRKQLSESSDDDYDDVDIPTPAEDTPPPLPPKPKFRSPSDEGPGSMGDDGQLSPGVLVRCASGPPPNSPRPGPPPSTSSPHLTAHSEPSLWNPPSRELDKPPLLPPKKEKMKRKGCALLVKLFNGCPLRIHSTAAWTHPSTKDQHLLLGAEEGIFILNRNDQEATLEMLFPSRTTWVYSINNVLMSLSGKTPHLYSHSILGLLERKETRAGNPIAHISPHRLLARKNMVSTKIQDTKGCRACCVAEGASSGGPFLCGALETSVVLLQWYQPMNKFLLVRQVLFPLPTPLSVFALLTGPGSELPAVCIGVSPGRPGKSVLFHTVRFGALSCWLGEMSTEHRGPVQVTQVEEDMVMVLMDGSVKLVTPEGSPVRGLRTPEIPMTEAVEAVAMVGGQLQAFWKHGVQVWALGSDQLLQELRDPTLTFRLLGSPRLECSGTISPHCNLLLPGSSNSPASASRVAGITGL
T1 sequence (P52333 781-1124 limits assumed): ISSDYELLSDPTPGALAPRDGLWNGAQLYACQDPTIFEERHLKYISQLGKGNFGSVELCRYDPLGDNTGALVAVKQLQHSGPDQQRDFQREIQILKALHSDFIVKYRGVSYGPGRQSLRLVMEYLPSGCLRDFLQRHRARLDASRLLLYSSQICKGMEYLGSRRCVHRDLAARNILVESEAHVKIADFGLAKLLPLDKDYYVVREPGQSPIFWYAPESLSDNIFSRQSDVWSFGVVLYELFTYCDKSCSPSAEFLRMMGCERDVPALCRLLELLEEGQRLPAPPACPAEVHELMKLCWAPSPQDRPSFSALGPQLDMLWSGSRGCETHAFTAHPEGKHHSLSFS

For `COc1cc2c(cc1Nc1ncc(Cl)c(N3CC(C(=O)O)c4ccccc43)n1)CN(C)CC2` (single isomer, unassigned) [Example 96], the IC50 in assay [1] (setting [3]) and in assay [2] (setting [4]) was ≤ 100 nM throughout. Moreover, the “JAKs/HPK1 IC50 Ratio, B*” value in assay [1] worked out at 80.

As to `COc1cc2c(cc1Nc1ncc(Cl)c(N3C[C@](C)(C(=O)O)c4ccccc43)n1)CN(C)CC2` (single isomer, unassigned) [Example 118], the values for the IC50 in assay [1] (setting [3]) and in assay [2] (setting [4]) were > 1000 nM and ≤ 100 nM, respectively. In addition, in assay [1], the “JAKs/HPK1 IC50 Ratio, B*” value worked out at 80.

For `COc1cc2c(cc1Nc1ncc(Cl)c(N3C[C@@](C)(C(=O)O)c4ccccc43)n1)CN(C)CC2` (single isomer, unassigned) [Example 119], the IC50 in assay [1] (setting [3]) and in assay [2] (setting [4]) was ≤ 100 nM throughout. The “JAKs/HPK1 IC50 Ratio, B*” value in assay [1] stood at 10.

As for `COc1cc2c(cc1Nc1ncc(Cl)c(N3CC(C)(CC(=O)O)c4ccccc43)n1)CN(C)CC2` (single isomer, unassigned) [Example 147], the IC50 in assay [1] (setting [3]) is > 1000 nM; in assay [2] (setting [4]), ≤ 100 nM. In addition, in assay [1], the “JAKs/HPK1 IC50 Ratio, B*” value was 132.

Consider `COc1cc2c(cc1Nc1ncc(Cl)c(N3CC(C)(CC(=O)O)c4ccccc43)n1)CN(C)CC2` (single isomer, unassigned) [Example 148], for which the IC50 in assay [1] (setting [3]) and in assay [2] (setting [4]) was ≤ 100 nM each time. Further, in assay [1], the “JAKs/HPK1 IC50 Ratio, B*” value is listed as 209.

On to `COc1cc2c(cc1Nc1ncc(Cl)c(N3CC(C)(CC(=O)O)c4ccc(F)cc43)n1)CN(C)CC2` (single isomer, unassigned) [Example 152], for which the values for the IC50 in assay [1] (setting [3]) and in assay [2] (setting [4]) were 100 to 500 nM and ≤ 100 nM, respectively. The “JAKs/HPK1 IC50 Ratio, B*” value in assay [1] is on record as 253.

Consider `COc1cc2c(cc1Nc1ncc(Cl)c(N3CC(C)(CC(=O)O)c4ccc(F)cc43)n1)CN(C)CC2` (single isomer, unassigned) [Example 153], for which the IC50 in assay [1] (setting [3]) is > 1000 nM; in assay [2] (setting [4]), ≤ 100 nM. For the same compound, in assay [1], the “JAKs/HPK1 IC50 Ratio, B*” value came to 358.

As for `COc1cc2c(cc1Nc1ncc(Cl)c(-n3ccc4ccccc43)n1)CN(C)CC2` [Example 2, N-(5-chloro-4-(1H-indol-1-yl)pyrimidin-2-yl)-6-methoxy-2-methyl-1,2,3,4-tetrahydroisoquinolin-7-amine], the IC50 was > 1000 nM in assay [1] (setting [5]), ≤ 100 nM in assay [2] (setting [4]) and ≤ 100 nM in assay [2] (setting [6]). Besides, in assay [1], the “JAKs/HPK1 IC50 Ratio, N*” value is 642.

In the case of `COc1cc2c(cc1Nc1ncc(Cl)c(N3CCc4ccccc43)n1)CN(C)CC2` [Example 4, N-(5-Chloro-4-(indolin-1-yl)pyrimidin-2-yl)-6-methoxy-2-methyl-1,2,3,4-tetrahydroisoquinolin-7-amine], the IC50 was > 1000 nM in assay [1] (setting [3]), 100 to 500 nM in assay [1] (setting [5]), ≤ 100 nM in assay [2] (setting [4]) and ≤ 100 nM in assay [2] (setting [6]). Besides, in assay [1], the “JAKs/HPK1 IC50 Ratio, B*” value came to 337. Besides, the “JAKs/HPK1 IC50 Ratio, N*” value in assay [1] is listed as 601.

For the compound `COc1cc2c(cc1Nc1ncc(Cl)c(-n3cc(C(=O)N(C)C)c4ccccc43)n1)CN(C)CC2` [Example 8], the IC50 is > 1000 nM in assay [1] (setting [5]), ≤ 100 nM in assay [2] (setting [4]) and ≤ 100 nM in assay [2] (setting [6]). Further, the “JAKs/HPK1 IC50 Ratio, N*” value in assay [1] was >2457.

With `COc1cc2c(cc1Nc1ncc(Cl)c(-n3cnc4ccccc43)n1)CN(C)CC2` [Example 9, N-(4-(1H-benzo[d]imidazol-1-yl)-5-chloropyrimidin-2-yl)-6-methoxy-2-methyl-1,2,3,4-tetrahydroisoquinolin-7-amine], the IC50 in assay [1] (setting [5]) is > 1000 nM; in assay [2] (setting [4]), ≤ 100 nM; in assay [2] (setting [6]), ≤ 100 nM. Further, in assay [1], the “JAKs/HPK1 IC50 Ratio, N*” value amounted to 571.

Consider `COc1cc2c(cc1Nc1ncc(C(F)(F)F)c(-n3ccc4ccccc43)n1)CN(C)CC2` [Example 10, N-(4-(1H-indol-1-yl)-5-(trifluoromethyl)pyrimidin-2-yl)-6-methoxy-2-methyl-1,2,3,4-tetrahydroisoquinolin-7-amine], for which the results for the 50% inhibitory concentration (IC50) in assay [1] (setting [3]) and in assay [2] (setting [4]) were > 1000 nM and ≤ 100 nM, respectively. For the same compound, the “JAKs/HPK1 IC50 Ratio, B*” value in assay [1] is recorded as >298.

Turning to `COc1cc2c(cc1Nc1ncc(Cl)c(N3CCc4cc(Cl)ccc43)n1)CN(C)CC2` [Example 13, N-(5-chloro-4-(5-chloroindolin-1-yl)pyrimidin-2-yl)-6-methoxy-2-methyl-1,2,3,4-tetrahydroisoquinolin-7-amine], the IC50 was 500 to 1000 nM in assay [1] (setting [3]) and ≤ 100 nM in assay [2] (setting [4]). For the same compound, the “JAKs/HPK1 IC50 Ratio, B*” value in assay [1] was found to be 62.

Regarding `CN1CCc2ccc(Nc3ncc(Cl)c(N4CCc5ccccc54)n3)cc2C1` [Example 14, N-(5-Chloro-4-(indolin-1-yl)pyrimidin-2-yl)-2-methyl-1,2,3,4-tetrahydroisoquinolin-7-amine], the IC50 in assay [1] (setting [3]), in assay [1] (setting [5]), in assay [2] (setting [4]) and in assay [2] (setting [6]) was ≤ 100 nM throughout. For the same compound, the “JAKs/HPK1 IC50 Ratio, B*” value in assay [1] was 6. Further, in assay [1], the “JAKs/HPK1 IC50 Ratio, N*” value is 11.

`CN1CCc2cc(Cl)c(Nc3ncc(Cl)c(N4CCc5ccccc54)n3)cc2C1` [Example 15, 6-Chloro-N-(5-chloro-4-(indolin-1-yl)pyrimidin-2-yl)-2-methyl-1,2,3,4-tetrahydroisoquinolin-7-amine]: the IC50 was > 1000 nM in assay [1] (setting [3]) and ≤ 100 nM in assay [2] (setting [4]). Further, the “JAKs/HPK1 IC50 Ratio, B*” value in assay [1] was 174.

Regarding `COc1cc2c(cc1Nc1ncc(Cl)c(N3CCc4ncccc43)n1)CN(C)CC2` [Example 16, N-(5-chloro-4-(2,3-dihydro-1H-pyrrolo[3,2-b]pyridin-1-yl)pyrimidin-2-yl)-6-methoxy-2-methyl-1,2,3,4-tetrahydroisoquinolin-7-amine], the IC50 in assay [1] (setting [3]) is > 1000 nM; in assay [2] (setting [4]), ≤ 100 nM.

`COc1cc2c(cc1Nc1ncc(Cl)c(N3CCc4ccc(Cl)cc43)n1)CN(C)CC2` [Example 18, N-(5-chloro-4-(6-chloroindolin-1-yl)pyrimidin-2-yl)-6-methoxy-2-methyl-1,2,3,4-tetrahydroisoquinolin-7-amine]: the IC50 in assay [1] (setting [3]) was > 1000 nM; in assay [2] (setting [4]), ≤ 100 nM. Besides, in assay [1], the “JAKs/HPK1 IC50 Ratio, B*” value is given as >446.

On to `COc1cc2c(cc1Nc1ncc(Cl)c(N3CC(S(C)(=O)=O)c4ccccc43)n1)CN(C)CC2` (stereo not shown) [Example 81, N-(5-chloro-4-(3-(methylsulfonyl)indolin-1-yl)pyrimidin-2-yl)-6-methoxy-2-methyl-1,2,3,4-tetrahydroisoquinolin-7-amine], for which the results for the IC50 in assay [1] (setting [3]) and in assay [2] (setting [4]) were 500 to 1000 nM and ≤ 100 nM, respectively. The “JAKs/HPK1 IC50 Ratio, B*” value in assay [1] is listed as 444.

As for `COc1cc2c(cc1Nc1ncc(Cl)c(-n3cc(S(N)(=O)=O)c4ccccc43)n1)CN(C)CC2` [Example 83, 1-(5-Chloro-2-((6-methoxy-2-methyl-1,2,3,4-tetrahydroisoquinolin-7-yl)amino)pyrimidin-4-yl)-1H-indole-3-sulfonamide], the IC50 in assay [1] (setting [3]) is > 1000 nM; in assay [2] (setting [4]), ≤ 100 nM. Further, the “JAKs/HPK1 IC50 Ratio, B*” value in assay [1] amounted to 232.

Regarding `COc1cc2c(cc1Nc1ncc(Cl)c(N3CC4(CC4)c4ccccc43)n1)CN(C)CC2` [Example 84, N-(5-chloro-4-(spiro[cyclopropane-1,3′-indolin]-1′-yl)pyrimidin-2-yl)-6-methoxy-2-methyl-1,2,3,4-tetrahydroisoquinolin-7-amine], the IC50 in assay [1] (setting [3]) was 100 to 500 nM; in assay [2] (setting [4]), ≤ 100 nM.

For `COc1cc2c(cc1Nc1ncc(Cl)c(N3CCc4cc(P(C)(C)=O)ccc43)n1)CN(C)CC2` [Example 86], the IC50 in assay [1] (setting [3]) was > 1000 nM; in assay [2] (setting [4]) it was ≤ 100 nM. Besides, in assay [1], the “JAKs/HPK1 IC50 Ratio, B*” value is on record as 67.

Consider `COc1cc2c(cc1Nc1ncc(Cl)c(N3CC(CO)c4ccccc43)n1)CN(C)CC2` (stereo not shown) [Example 87], for which the results for the IC50 in assay [1] (setting [3]) and in assay [2] (setting [4]) were 100 to 500 nM and ≤ 100 nM, respectively.

`COc1cc2c(cc1Nc1ncc(Cl)c(N3CC(P(C)(C)=O)c4ccccc43)n1)CN(C)CC2` (stereo not shown) [Example 88]: the values for the IC50 in assay [1] (setting [3]) and in assay [2] (setting [4]) were > 1000 nM and ≤ 100 nM, respectively.

As for `COc1cc2c(cc1Nc1ncc(Cl)c(N3CCc4cc(C(F)F)ccc43)n1)CN(C)CC2` [Example 90, N-(5-chloro-4-(5-(difluoromethyl)indolin-1-yl)pyrimidin-2-yl)-6-methoxy-2-methyl-1,2,3,4-tetrahydroisoquinolin-7-amine], the IC50 in assay [1] (setting [3]) is > 1000 nM; in assay [2] (setting [4]), ≤ 100 nM. In assay [1], the “JAKs/HPK1 IC50 Ratio, B*” value is 413.

With `COc1cc2c(cc1Nc1ncc(Cl)c(N3CCc4ccc(C(F)F)cc43)n1)CN(C)CC2` [Example 91, N-(5-chloro-4-(6-(difluoromethyl)indolin-1-yl)pyrimidin-2-yl)-6-methoxy-2-methyl-1,2,3,4-tetrahydroisoquinolin-7-amine], the IC50 in assay [1] (setting [3]) was > 1000 nM; in assay [2] (setting [4]), ≤ 100 nM. Besides, in assay [1], the “JAKs/HPK1 IC50 Ratio, B*” value was >1500.

As to `COc1cc2c(cc1Nc1ncc(Cl)c(N3CCc4c(C(F)F)cccc43)n1)CN(C)CC2` [Example 92, N-(5-chloro-4-(4-(difluoromethyl)indolin-1-yl)pyrimidin-2-yl)-6-methoxy-2-methyl-1,2,3,4-tetrahydroisoquinolin-7-amine], the IC50 was > 1000 nM in assay [1] (setting [3]) and ≤ 100 nM in assay [2] (setting [4]). In addition, the “JAKs/HPK1 IC50 Ratio, B*” value in assay [1] is on record as 393.

For the compound `COc1cc2c(cc1Nc1ncc(Cl)c(-n3cc(C4(O)COC4)c4ccccc43)n1)CN(C)CC2` [Example 93], the IC50 was > 1000 nM in assay [1] (setting [3]) and 100 to 500 nM in assay [2] (setting [4]).
